Tests used:
[1] = target: hMC4R (Homo sapiens (Human), UniProt P32245); experiment: In vitro binding affinity assay using hMC4R (radioligand competition binding, CHO cell membranes); details: competition with [125I]-(Nle4, D-Phe7)-α-MSH 0.5 nM; Ki from IC50 by Cheng-Prusoff; read-out: Ki (nM) geometric mean
[2] = target: human Melanocortin-4 receptor (MC4R) (Homo sapiens (Human), UniProt P32245); experiment: Functional in vitro MC4R antagonist potency assay (intracellular cAMP, HTRF, CHO cells); type: cell-based; details: cAMP after EC80 agonist stimulation (200 nM αMSH); Kb from IC50 by Leff-Dougall equation; read-out: Kb (nM) Antagonist geometric mean
Procedure: The functional in vitro antagonist potency for test compounds was determined by monitoring intracellular cyclic adenosine monophosphate (cAMP) levels in Chinese hamster ovary (CHO—) cells stably expressing the human Melanocortin-4 receptor (MC4R). Following agonist activation, human MC4R associates with the G-protein complex causing the Ga subunit to exchange bound GDP for GTP, followed by dissociation of the Gα-GTP complex. The activated Ga subunit can couple to downstream effectors to regulate the levels of second messengers or cAMP within the cell. Thereby, determination of intracellular cAMP levels allows for pharmacological characterization. Intracellular cAMP levels are quantitated using a homogenous assay utilizing the Homogeneous Time-Resolved Fluorescence (HTRF) technology from CisBio. The method is a competitive immunoassay between native cAMP produced by cells and the cAMP labelled with the acceptor dye, d2. The two entities then compete for binding to a monoclonal anti-cAMP antibody labeled with cryptate. The specific signal is inversely proportional to the concentration of cAMP in the cells.
Test compounds were solubilized to 30 mM in 100% dimethyl sulfoxide (DMSO) and stored. An 11-point dilution series using 1 in 3 162-fold serial dilutions was created in 100% DMSO with a top concentration of 800 μM. The serially diluted compound was spotted into a 384-well plate (Greiner, Cat No. 781280) at 40 nL/well with duplicate points at each concentration, and then diluted 1 in 1000 with 40 μL assay buffer containing HBSS, 20 mM HEPES (Invitrogen), 0.1% BSA, and 250 μM IBMX (Sigma Aldrich) to create an intermediate plate at 2× final assay concentration (FAC). The final compound concentration range in the assay was 400 nM to […], with a final DMSO concentration of 0.1%.
In-house generated CHO cells stably expressing the Gs-coupled human MC4R receptor were plated in 384-well assay plates (Corning, Cat No. 3570) in 50 μL/well of Ham's F-12 containing 10% heat inactivated FBS, 1× penicillin/streptomycin, 1 mM Glutamax (Invitrogen) at a density of 2,500 cells per well and incubated at 37° C. (95% O2: 5% CO2) overnight, with micro-clime lids (Labcyte, Cat No. LLS-0310). On day of assay, media was removed from the assay plate through gentle flicking and blotting plate on a paper towel and replaced with 5 μL of 2× antagonist compound in assay buffer (HBSS, 20 mM HEPES, 0.1% BSA, 250 μM IBMX) and 0.1% DMSO. Cells were incubated with compound for 30 minutes at 37° C. (95% O2: 5% CO2) before addition of 5 μL EC80 agonist stimulation (200 nM α-melanocyte stimulating hormone, αMSH, Bachem) and another 30-minute incubation at 37° C. (95% O2: 5% CO2). Intracellular cAMP levels were quantified as per Cisbio's protocol (5 μL of D2 and then 5 μL Cryptate, incubated for 1-2 hours at room temperature). Samples were measured on an Envision plate reader (PerkinElmer Life and Analytical Sciences; excitation, 320 nm; emission, 665 nm/620 nm).
Data were analyzed using the ratio of fluorescence intensity at 620 and 665 nm for each well, extrapolated from the cAMP standard curve to express data as nM cAMP for each well. Data expressed as nM cAMP were then normalized to control wells using Activity Base (IDBS). Zero percent effect (ZPE) was defined as nM of cAMP generated from EC80 agonist stimulation (200 nM αMSH). In the absence of an antagonist control compound, one hundred percent effect (HPE) was defined as nM of cAMP generated from assay buffer/vehicle only.

Sequence of hMC4R (P32245 whole entry): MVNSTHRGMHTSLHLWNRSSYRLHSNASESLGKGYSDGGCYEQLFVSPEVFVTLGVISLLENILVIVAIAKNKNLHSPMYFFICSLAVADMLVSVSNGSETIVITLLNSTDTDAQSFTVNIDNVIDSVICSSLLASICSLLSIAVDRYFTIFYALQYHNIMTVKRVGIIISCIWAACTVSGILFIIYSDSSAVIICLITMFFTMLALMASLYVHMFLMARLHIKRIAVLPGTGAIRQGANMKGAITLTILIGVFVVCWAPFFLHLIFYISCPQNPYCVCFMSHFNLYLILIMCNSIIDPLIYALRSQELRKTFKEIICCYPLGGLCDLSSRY
Sequence of human Melanocortin-4 receptor (MC4R) (P32245 whole entry): as above

| SMILES | Ki [1] [nM] | Kb [2] [nM] |
| --- | --- | --- |
| COc1cc(OC)cc([C@@H](C)C(=O)N2CC[C@H](Nc3ccc(-c4nc(C(F)(F)F)n(C)n4)c(C)n3)C2)c1 [Example 39, (2R)-2-(3,5-dimethoxyphenyl)-1-[(3S)-3-({6-methyl-5-[1-methyl-5-(trifluoromethyl)-1H-1,2,4-triazol-3-yl]pyridin-2-yl}amino)pyrrolidin-1-yl]propan-1-one] | 0.28 | 3.3 |
| [2H]C([2H])([2H])n1nc(-c2ccc(N[C@H]3CCN(C(=O)[C@H](C)c4cc(OC)ncc4F)C3)nc2C)nc1C(F)(F)F [Example 42, (2R)-2-(5-fluoro-2-methoxypyridin-4-yl)-1-[(3S)-3-({6-methyl-5-[1-(^2H3)methyl-5-(trifluoromethyl)-1H-1,2,4-triazol-3-yl]pyridin-2-yl}amino)pyrrolidin-1-yl]propan-1-one] | 1.3 | 5.4 |
| COc1cc([C@@H](C)C(=O)N2CC[C@H](Nc3ccc(-c4nc5ccccn5n4)c(C)n3)C2)c(F)cn1 [Example 43, (2R)-2-(5-fluoro-2-methoxypyridin-4-yl)-1-[(3S)-3-{[6-methyl-5-([1,2,4]triazolo[1,5-a]pyridin-2-yl)pyridin-2-yl]amino}pyrrolidin-1-yl]propan-1-one] | 0.91 | 9.5 |

Source: patent US20250129048A1, “MELANOCORTIN 4 RECEPTOR ANTAGONISTS AND USES THEREOF” (Pfizer Inc., priority 2021, published 2025)
